A short description of experiment [1]: Displacement of [3H]PDBu from partially purified rabbit brain PKC. Also on record: species or system Oryctolagus cuniculus.
For experiment [2], the system named is HL-60. Put plainly: Induction of TNFalpha release from human HL-60 cells after 24 hrs by ELISA. It is filed as functional. A general note: An ELISA detects its analyte on a solid surface through an enzyme-linked reagent.
The species entered for experiment [3] is Mus musculus. Description: Carcinogenesis in CD1 mouse skin assessed as tumor incidence at 400 nmol twice a week for 20 weeks. It is filed as functional.
The species entered for a further experiment is Oryctolagus cuniculus. Put plainly: Activation of rabbit brain PKC assessed as [32P] incorporation in histone 3-S from [gamma32P]ATP.
Experiment [4] relates to HL-60. Put plainly: Induction of human HL-60 cell adhesion after 48 hrs. It is filed as functional.
The species entered for experiment [5] is Mus musculus. Put plainly: Carcinogenesis in CD1 mouse skin assessed as tumor incidence at 4 nmol twice a week for 20 weeks. It is filed as functional.

In general, IC50 refers to the concentration that inhibits the measured activity by half. A lower IC50 goes with inhibition by little substance. Take `C=C(/C=C/C=C(/CO)[C@@H]1CC[C@]2([C@H](CCCO)/C(=C(/C)C=O)CC[C@]2(C)O)[C@H]1O)CCC=C(C)C`: in experiment [1], the IC50 worked out at 200 nM. This molecule gave an ED100 in the experiment with HL-60 [2] of 3000 nM. The Activity in the experiment listed under Mus musculus [3] is on record as 64.3%; in the experiment with HL-60 [4], 500 nM. In addition, the ED50 in the experiment listed under Oryctolagus cuniculus was determined as 300 nM.

`CCCCCCCCCCCCCC(=O)O[C@@H]1[C@@H](C)[C@@]2(O)[C@@H](C=C(CO)C[C@]3(O)C(=O)C(C)=C[C@@H]23)[C@@H]2C(C)(C)[C@]12OC(C)=O` [PHORBOL MYRISTATE ACETATE] yielded a concentration for half-maximal inhibition (IC50) in experiment [1] of 15 nM. In addition, the results for the Activity in the experiment listed under Mus musculus [5] and in the experiment with HL-60 [4] were 93.3% and 3 nM, respectively. Besides, in the experiment with HL-60 [2], the ED100 was found to be 6 nM. The ED50 in the experiment filed under Oryctolagus cuniculus was 15 nM.

For the origin of these results see ChEMBL document CHEMBL1158017, “28-deacetylbelamcandal, a tumor-promoting triterpenoid from Iris tectorum” (J Nat Prod, 1999).
